Literature values as cited in US20210319872A1, “DRUG AND DEVICE COMBINATION PRODUCTS WITH IMPROVED SAFETY AND EFFICACY PROFILES” (priority 2016, published 2021).
Read-outs that look alike come from different tables or passages of the source.

In the case of `C[C@@H]1CCN(C(=O)CC#N)C[C@@H]1N(C)c1ncnc2[nH]ccc12` [Xeljanz (Jak Compounds)], the Decreased lymphocyte count (in vivo) is given as “Hematologic: Anemia, Decreased lymphocyte count (0.04%),”, the Headache (in vivo) is given as “Neurologic: Headache (3.4% to 4.3%)” and the “Increased HDL level” value (in vivo) is given as “Endocrine metabolic: Increased HDL level (10% to 12%), Raised”. For the same compound, the Infectious disease (in vivo) was “Immunologic: Infectious disease (20% to 22%), Opportunistic”, the Nasopharyngitis (in vivo) was “Respiratory: Nasopharyngitis (2.8% to 3.8%), Upper respiratory” and the Neutropenia (in vivo) was “Neutropenia (0.07%)”. The “Post-transplant lymphoproliferative disorder, Epstein Barr virus associated” value (in vivo) was “Barr virus associated (2.3%), Tuberculosis”, the “Raised low density lipoprotein cholesterol” value (in vivo) was “low density lipoprotein cholesterol (15% to 19%)” and the “Serious side effect, Dermatologic” value (in vivo) was “Dermatologic: Skin cancer, Non-melanoma”. The “Serious side effect, Gastrointestinal” value (in vivo) was “Gastrointestinal: Gastrointestinal perforation”, the “Serious side effect, Hematologic” value (in vivo) was “Hematologic: Anemia, Decreased lymphocyte count (0.04%),” and the “Serious side effect, Hepatic” value (in vivo) was “Hepatic: Injury of liver”. The “Serious side effect, Other” value (in vivo) was “Other: Cancer”, the Upper respiratory infection (in vivo) was “infection (3.8% to 4.5%)” and the “Urinary tract infectious disease” value (in vivo) was “Renal: Urinary tract infectious disease (2%)”.
In the case of `COc1ccccc1Oc1c(NS(=O)(=O)c2ccc(C(C)(C)C)cc2)nc(-c2ncccn2)nc1OCCO` [Tracleer], the Decreased hemoglobin (in vivo) is listed as “Hematologic: Decreased hemoglobin (6%)”, the “Decreased hemoglobin (Severe)” value (in vivo) is listed as “Hematologic: Decreased hemoglobin (Severe) (3%)” and the Headache (in vivo) is listed as “Neurologic: Headache (up to 24%)”. The Hypotension (in vivo) was 7%, the “Increased liver aminotransferase level” value (in vivo) was ≤ 11% and the Palpitations (in vivo) was 5%. For the same compound, the “Serious side effect, Other” value (listed without frequency) was “Other: Angioedema”.
For `CC[C@@H](C(N)=O)N1CCCC1=O` [Levetiracetam (Keppra)], the Asthenia (in vivo) is given as “Neurologic: Asthenia (15%), Dizziness (5% to 9%), Headache”, the Cough (in vivo) is given as “Respiratory: Cough (2% to 9%), Nasopharyngitis (7% to 15%)” and the “Decreased bone mineral density” value (in vivo) is given as “Musculoskeletal: Decreased bone mineral density (70%), Neck pain”. For the same compound, the “Decreased white blood cell count” value (in vivo) was “blood cell count (2.4% to 3.2%), Eosinophilia (8.6%), Neutropenia”, the Dizziness (in vivo) was “Neurologic: Asthenia (15%), Dizziness (5% to 9%), Headache” and the Eosinophilia (in vivo) was “blood cell count (2.4% to 3.2%), Eosinophilia (8.6%), Neutropenia”. The Fatigue (in vivo) was “Other: Fatigue (10% to 11%)”, the Headache (in vivo) was “(14% to 19%)” and the Infectious disease (in vivo) was “Immunologic: Infectious disease (13%)”. For the same compound, the Nasopharyngitis (in vivo) was “Respiratory: Cough (2% to 9%), Nasopharyngitis (7% to 15%)”, the Neck pain (in vivo) was “(2% to 8%)” and the Neutropenia (in vivo) was “(partial onset seizures, adults, 2.4%), Pancytopenia,”. For the same compound, the Somnolence (in vivo) was “Neurologic: Somnolence (8% to 45%)”, the Suicidal intent (in vivo) was “Psychiatric: Suicidal intent (0.5%), Suicide” and the Vomiting (in vivo) was “Gastrointestinal: Loss of appetite (3% to 8%), Vomiting (15%)”.
For `CC(C)NCC(O)COc1ccc(CCOCC2CC2)cc1` (stereo not drawn) [Betaxolol (Kerlone)], the Arthralgia (in vivo) is given as “Musculoskeletal: Arthralgia (3.1% to 5.2%), Chest pain (2.4% to”, the Bradyarrhythmia (in vivo) is given as “Cardiovascular: Bradyarrhythmia (5.8% to 8.1%)” and the “Burning sensation in eye” value (in vivo) is given as “Ophthalmic: Burning sensation in eye (30%, ophthalmic)”. The Fatigue (in vivo) was “Other: Fatigue (2.9% to 9.7%)”, the Indigestion (in vivo) was “Gastrointestinal: Indigestion (3.9% to 4.7%), Nausea (1.6% to” and the “Serious side effects, listed without incidence or only as rare” value (in vivo) was “Cardiovascular: Atrioventricular block, Myocardial infarction”.
For `NCCCC[C@H](N[C@@H](CCc1ccccc1)C(=O)O)C(=O)N1CCC[C@H]1C(=O)O` [Lisinopril (Prinivil, Zestril)], the Dizziness (in vivo) is given as “Neurologic: Dizziness (12% to 19%), Headache”, the Hyperkalemia (in vivo) is given as “Endocrine metabolic: Hyperkalemia (2.2% to 6%)” and the Hypotension (in vivo) is given as “Cardiovascular: Chest pain, Hypotension (up to 11%), Syncope”. The “Hypotension (Severe)” value (in vivo) was “Cardiovascular: Hypotension (Severe) (9%)”, the Renal impairment (in vivo) was “Renal: Acute renal failure, Renal impairment (2.4%)” and the Stevens-Johnson syndrome (in vivo) was “Dermatologic: Stevens-Johnson syndrome (1% or more), Toxic”. For the same compound, the Syncope (in vivo) was “(5% to 7%)”.
For `CC1Cc2ccccc2N1NC(=O)c1ccc(Cl)c(S(N)(=O)=O)c1` (stereo not drawn) [Indapamide (Lozol)], the “Dizziness (incidence)” value (in vivo) is listed as “Neurologic: Asthenia, Dizziness (Greater than or equal to 5%),”, the “Headache (incidence)” value (in vivo) is listed as “Headache (Greater than or equal to 5%), Lethargy, Numbness” and the “Hypokalemia (incidence)” value (in vivo) is listed as “Endocrine metabolic: Hypokalemia (3% to 7%)”.
For `CN1C(=O)CN=C(c2ccccc2)c2cc(Cl)ccc21` [Valium (diazepam)], the “Common side effect, Cardiovascular” value (in vivo) is listed as “Cardiovascular: Hypotension”, the “Common side effect, Musculoskeletal” value (in vivo) is listed as “Musculoskeletal: Muscle weakness” and the “Common side effect, Neurologic” value (in vivo) is listed as “Neurologic: Ataxia, Incoordination (3%, rectal gel), Somnolence”. The “Common side effect, Other” value (in vivo) was “Other: Fatigue”, the “Common side effect, Respiratory” value (in vivo) was “Respiratory: Respiratory depression” and the Diarrhea (in vivo) was “Gastrointestinal: Diarrhea (4%, rectal gel)”. For the same compound, the Euphoria (in vivo) was “Psychiatric: Euphoria (3%, rectal gel)”, the Incoordination (in vivo) was “Neurologic: Ataxia, Incoordination (3%, rectal gel), Somnolence” and the Rash (in vivo) was “Dermatologic: Rash (3%, rectal gel)”. For the same compound, the “Serious side effect, Hematologic” value (in vivo) was “Hematologic: Neutropenia”.
In the case of `O=c1n(CCCN2CCN(c3cccc(Cl)c3)CC2)nc2ccccn12` [Trazodone (Desyrel)], the Backache (in vivo) is given as “Musculoskeletal: Backache (5%)”, the Confusion (in vivo) is given as “Neurologic: Confusion (up to 5.7%), Dizziness (25%), Headache” and the Constipation (in vivo) is given as “Gastrointestinal: Constipation (7% to 8%), Diarrhea (up to 9%),”. The Diarrhea (in vivo) was “Gastrointestinal: Constipation (7% to 8%), Diarrhea (up to 9%),”, the Dizziness (in vivo) was “Neurologic: Confusion (up to 5.7%), Dizziness (25%), Headache” and the Fatigue (in vivo) was “Other: Fatigue (5.7% to 15%)”. For the same compound, the Hypersensitivity reaction (in vivo) was “Immunologic: Hypersensitivity reaction (less than 1%)”, the Hypotension (in vivo) was “Cardiovascular: Cardiac dysrhythmia, Hypotension (3.8% to 7%),” and the Nausea (in vivo) was “Nausea (21%), Vomiting (at least 1%), Xerostomia (14% to 33.8%)”. For the same compound, the Vomiting (in vivo) was “Nausea (21%), Vomiting (at least 1%), Xerostomia (14% to 33.8%)” and the Xerostomia (in vivo) was “Nausea (21%), Vomiting (at least 1%), Xerostomia (14% to 33.8%)”.
In the case of `O=C1CC2(CCCC2)CC(=O)N1CCCCN1CCN(c2ncccn2)CC1` [Buspirone (Buspar)], the Cerebrovascular accident (in vivo) is listed as “Neurologic: Cerebrovascular accident (less than 0.1%)”, the Congestive heart failure (in vivo) is listed as “Cardiovascular: Congestive heart failure (less than 0.1%),” and the Dizziness (in vivo) is listed as “Neurologic: Dizziness (12%), Headache (6%), Somnolence (10%)”. For the same compound, the Feeling nervous (in vivo) was “Psychiatric: Feeling nervous (5%)”, the Headache (in vivo) was “Neurologic: Dizziness (12%), Headache (6%), Somnolence (10%)” and the Myocardial infarction (in vivo) was “Myocardial infarction (less than 0.1%)”. For the same compound, the Nausea (in vivo) was “Gastrointestinal: Nausea (8%)” and the Somnolence (in vivo) was “Neurologic: Dizziness (12%), Headache (6%), Somnolence (10%)”.
In the case of `NS(=O)(=O)c1cc(C(=O)O)c(NCc2ccco2)cc1Cl` [Furosemide (Lasix)], the “Hyperuricemia (incidence)” value (in vivo) is listed as “Endocrine metabolic: Hyperuricemia (40%), Hypomagnesemia”.
For `CNCCC=C1c2ccccc2CCc2ccccc21` [Nortriptyline (Pamelor)], the “Common side effects, listed without incidence” value (in vivo) is listed as “Gastrointestinal: Constipation”.
For `CCOC(=O)[C@H](CCc1ccccc1)N[C@H]1CCc2ccccc2N(CC(=O)O)C1=O` [Benazepril (Lotensin)], the “Angioedema, head and neck” value (in vivo) is given as “Other: Angioedema, head and neck (0.5%)”, the Cough (in vivo) is given as “Respiratory: Cough (1.2%)” and the Dizziness (in vivo) is given as “Neurologic: Dizziness (3.6%), Headache (6.2%)”. The Fatigue (in vivo) was “Other: Fatigue (2.4%)”, the Headache (in vivo) was “Neurologic: Dizziness (3.6%), Headache (6.2%)” and the Stevens-Johnson syndrome (in vivo) was “Dermatologic: Stevens-Johnson syndrome (less than 1%)”.
